{"source": "patent US20240285541A1", "about": "“SHELF STABLE ORGANIC NUCLEOTIDE COMPOSITIONS AND METHODS OF MANUFACTURING THE SAME” (Glanbia Nutritionals, Inc., priority 2023, published 2024)", "assay": "ATP stability over 362 days, processed under acidic and hot-fill conditions", "format": "physicochemical", "conditions": "acidic conditions (pH 2.8; b60 also says pH 2.5), hot-fill conditions", "from_the_text": "FIG. 5 is a graphical representation 500 of the unexpectedly good results achieved through the method and composition described in connection with FIG. 4. Specifically, the graphical representation 500 illustrates a comparison of ATP stability for a composition or product of the disclosure (specifically, Formula A prepared according to method 400) compared against a control ATP product processed under acidic conditions (pH 2.5) and hot-fill conditions. The ATP stability measurements were calculated over three hundred sixty-two (362 days). For the control ATP, pH 2.8 (Δ), y=116.03e^−0.012x, R^2=0.966. For the encapsulated ATP Formula A, pH 2.8 (Δ), y=100.37e^−0.003x, R^2=0.9591.\nSpecifically, Formula A continued to comprise about 33.43 wt % of ATP 100, 200 at the end of the 362 days, compared with the 1.44 wt % of ATP 100, 200 in the control ATP solution.\nFIG. 7 is a graphical representation 700 of the unexpectedly good results achieved through the method and composition described in connection with FIG. 6. Specifically, the graphical representation 700 illustrates a comparison of ATP stability for a composition or product of the disclosure (specifically, Formula B prepared according to method 600) compared against a control ATP product processed under acidic conditions (pH 2.8) and hot-fill conditions. ATP stability measurements were calculated over three hundred sixty-two (362) days. […]", "data": [{"smiles": "Nc1ncnc2c1ncn2[C@@H]1O[C@H](COP(=O)(O)OP(=O)([O-])OP(=O)([O-])O)[C@@H](O)[C@H]1O.[Na+].[Na+]", "note": "[control ATP, adenosine triphosphate (ATP) disodium salt]", "values": [{"measurement": "ATP 100, 200 comprised at the end of the 362 days", "value": 1.44, "unit": "wt %"}]}]}
